According to patent US9079859B2, “Synthetic lethal targeting of glucose transport” (AUCKLAND UNISERVICES LIMITED, priority 2011, dated 2015):

How the values were obtained:
Plk3 = target: T1, Plk3 (Homo sapiens, UniProt Q9H4B4); test: Kinase Profiler; type: biochemical; details: STF-31 10 μM
T1 construct: purchased Millipore (Kinase Profiler service)
Description: (§1) Cell Culture and Reagents. All cells were grown in DMEM+10% FCS. ACHN and ACHN shVHL were a kind gift from George V. Thomas (UCLA). HIF overexpressing clones were described previously (Sutphin et al., Cancer Res, 67:5896-5905 (2007)). Transfection of RNA oligos were performed with DnarmaFECT Reagent 1 (Dharmcon), according to manufacturer's directions. ON-TARGETplus SMART pools against HIF-1 R/ARNT were purchased from Dharmacon. Inducible shRNAmir to GLUT1 was purchased from Open Biosystems. GLUT1 was detected with anti-GLUT1 antibody from NeoMarkers/LabVision/Fisher. For immunofluorescent studies, GLUT1, GLUT2, and GLUT3 antibodies were purchased from R&D. Pyruvate/lactate levels and hexokinase activity were both measured by fluorometric assay (BioVision and Sigma-Aldrich, respectively). ATP levels were measured by bioluminescence assay (ATP Determination Kit from Molecular Probes/Invitrogen). In vitro kinase activities were performed by Millipore Kinase Profiler.

PKBα = target: T2, PKBα (Homo sapiens, UniProt P31749); test: Kinase Profiler; type: biochemical; details: STF-31 10 μM
T2 construct: purchased Millipore Kinase Profiler
Description: as §1

MAPKAP-K2 = target: T3, MAPKAP-K2 (Homo sapiens, UniProt P49137); test: Kinase Profiler; type: biochemical; details: STF-31 10 μM
T3 construct: purchased Millipore Kinase Profiler
Description: as §1

CDK6/cyclinD3 = target: T4, CDK6/cyclinD3 (Homo sapiens, UniProt Q00534); test: Kinase Profiler; type: biochemical; details: STF-31 10 μM
T4 construct: purchased Millipore (Kinase Profiler service)
Description: as §1

MSK1 = target: T5, MSK1 (Homo sapiens, UniProt O75582); test: Kinase Profiler; type: biochemical; details: STF-31 10 μM
T5 construct: purchased Millipore Kinase Profiler
Description: as §1

Flt3 = target: T6, Flt3 (Homo sapiens, UniProt P36888); test: Kinase Profiler; type: biochemical; details: STF-31 10 μM
T6 construct: purchased Millipore Kinase Profiler
Description: as §1

Aurora-A = target: T7, Aurora-A (Homo sapiens, UniProt O14965); test: Kinase Profiler; type: biochemical; details: STF-31 10 μM
T7 construct: purchased Millipore (Kinase Profiler service)
Description: as §1

c-RAF = target: T8, c-RAF (Homo sapiens, UniProt P04049); test: Kinase Profiler; type: biochemical; details: STF-31 10 μM
T8 construct: purchased Millipore (Kinase Profiler service)
Description: as §1

MLK1 = target: T9, MLK1 (Homo sapiens, UniProt P80192); test: Kinase Profiler; type: biochemical; details: STF-31 10 μM
T9 construct: purchased Millipore Kinase Profiler
Description: as §1

TrkA = target: T10, TrkA (Homo sapiens, UniProt P04629); test: Kinase Profiler; type: biochemical; details: STF-31 10 μM
T10 construct: purchased Millipore (Kinase Profiler service)
Description: as §1

IR = target: T11, IR (Homo sapiens, UniProt P06213); test: Kinase Profiler; type: biochemical; details: STF-31 10 μM
T11 construct: purchased Millipore Kinase Profiler
Description: as §1

CaMKI = target: T12, CaMKI (Homo sapiens, UniProt Q14012); test: Kinase Profiler; type: biochemical; details: STF-31 10 μM
T12 construct: purchased Millipore (Kinase Profiler service)
Description: as §1

mTOR = target: T13, mTOR (Homo sapiens, UniProt P42345); test: Kinase Profiler; type: biochemical; details: STF-31 10 μM
T13 construct: purchased Millipore Kinase Profiler
Description: as §1

Tie2 = target: T14, Tie2 (Homo sapiens, UniProt Q02763); test: Kinase Profiler; type: biochemical; details: STF-31 10 μM
T14 construct: purchased Millipore (Kinase Profiler service)
Description: as §1

DAPK1 = target: T15, DAPK1 (Homo sapiens, UniProt P53355); test: Kinase Profiler; type: biochemical; details: STF-31 10 μM
T15 construct: purchased Millipore (Kinase Profiler service)
Description: as §1

EphA1 = target: T16, EphA1 (Homo sapiens, UniProt P21709); test: Kinase Profiler; type: biochemical; details: STF-31 10 μM
T16 construct: purchased Millipore (Kinase Profiler service)
Description: as §1

Abl = target: T17, Abl (Homo sapiens, UniProt P00519); test: Kinase Profiler; type: biochemical; details: STF-31 10 μM
T17 construct: purchased Millipore (Kinase Profiler service)
Description: as §1

Fyn = target: T18, Fyn (Homo sapiens, UniProt P06241); test: Kinase Profiler; type: biochemical; details: STF-31 10 μM
T18 construct: purchased Millipore Kinase Profiler
Description: as §1

PAK2 = target: T19, PAK2 (Homo sapiens, UniProt Q13177); test: Kinase Profiler; type: biochemical; details: STF-31 10 μM
T19 construct: purchased Millipore Kinase Profiler
Description: as §1

Met = target: T20, Met (Homo sapiens, UniProt P08581); test: Kinase Profiler; type: biochemical; details: STF-31 10 μM
T20 construct: purchased Millipore Kinase Profiler
Description: as §1

CHK1 = target: T21, CHK1 (Homo sapiens, UniProt O14757); test: Kinase Profiler; type: biochemical; details: STF-31 10 μM
T21 construct: purchased Millipore (Kinase Profiler service)
Description: as §1

ASK1 = target: T22, ASK1 (Homo sapiens, UniProt Q99683); test: Kinase Profiler; type: biochemical; details: STF-31 10 μM
T22 construct: purchased Millipore (Kinase Profiler service)
Description: as §1

GSK3α = target: T23, GSK3α (Homo sapiens, UniProt P49840); test: Kinase Profiler; type: biochemical; details: STF-31 10 μM
T23 construct: purchased Millipore Kinase Profiler
Description: as §1

CDK1/cyclinB = target: T24, CDK1/cyclinB (Homo sapiens, UniProt P06493); test: Kinase Profiler; type: biochemical; details: STF-31 10 μM
T24 construct: purchased Millipore (Kinase Profiler service)
Description: as §1

MEK1 = target: T25, MEK1 (Homo sapiens, UniProt Q02750); test: Kinase Profiler; type: biochemical; details: STF-31 10 μM
T25 construct: purchased Millipore Kinase Profiler
Description: as §1

IRAK1 = target: T26, IRAK1 (Homo sapiens, UniProt P51617); test: Kinase Profiler; type: biochemical; details: STF-31 10 μM
T26 construct: purchased Millipore Kinase Profiler
Description: as §1

CK1γ1 = target: T27, CK1γ1 (Homo sapiens, UniProt Q9HCP0); test: Kinase Profiler; type: biochemical; details: STF-31 10 μM
T27 construct: purchased Millipore (Kinase Profiler service)
Description: as §1

Hck = target: T28, Hck (Homo sapiens, UniProt P08631); test: Kinase Profiler; type: biochemical; details: STF-31 10 μM
T28 construct: purchased Millipore Kinase Profiler
Description: as §1

Axl = target: T29, Axl (Homo sapiens, UniProt P30530); test: Kinase Profiler; type: biochemical; details: STF-31 10 μM
T29 construct: purchased Millipore (Kinase Profiler service)
Description: as §1

RCC4 cells = test: Lactate production, VHL-deficient cells; type: cell-based; design: dose or concentration left out as unconfirmed; details: VHL-deficient cells vs control-treated; STF-31 as printed in FIG. 2 legend
Description: HIF is important to adapting to low oxygen conditions through the transcription of many genes, including those involved in glucose metabolism. It was hypothesized that STF-31 might inhibit metabolic pathways, leading to necrotic cell death. To examine whether this compound alters glycolysis, intracellular lactate, which is rapidly converted from the glycolysis end product pyruvate, and extracellular acidification were measured. Baseline levels of glycolysis were lower in wild-type VHL cells compared to VHL-deficient cells (FIGS. 2, A and B), likely a result of the constitutive expression of HIF and subsequent overexpression of glucose transporters and glycolytic enzymes in the latter.
as §1, with “Transfection of RNA oligos were performed with DnarmaFECT Reagent 1 (Dharmcon), according to manufacturer's directions. ON-TARGETplus SMART pools against HIF-1 R/ARNT were purchased from Dharmacon. Inducible shRNAmir to GLUT1 was purchased from Open Biosystems.” left out, “In vitro kinase activities were performed by Millipore Kinase Profiler.” left out

T1 sequence (Q9H4B4 whole entry, species assumed): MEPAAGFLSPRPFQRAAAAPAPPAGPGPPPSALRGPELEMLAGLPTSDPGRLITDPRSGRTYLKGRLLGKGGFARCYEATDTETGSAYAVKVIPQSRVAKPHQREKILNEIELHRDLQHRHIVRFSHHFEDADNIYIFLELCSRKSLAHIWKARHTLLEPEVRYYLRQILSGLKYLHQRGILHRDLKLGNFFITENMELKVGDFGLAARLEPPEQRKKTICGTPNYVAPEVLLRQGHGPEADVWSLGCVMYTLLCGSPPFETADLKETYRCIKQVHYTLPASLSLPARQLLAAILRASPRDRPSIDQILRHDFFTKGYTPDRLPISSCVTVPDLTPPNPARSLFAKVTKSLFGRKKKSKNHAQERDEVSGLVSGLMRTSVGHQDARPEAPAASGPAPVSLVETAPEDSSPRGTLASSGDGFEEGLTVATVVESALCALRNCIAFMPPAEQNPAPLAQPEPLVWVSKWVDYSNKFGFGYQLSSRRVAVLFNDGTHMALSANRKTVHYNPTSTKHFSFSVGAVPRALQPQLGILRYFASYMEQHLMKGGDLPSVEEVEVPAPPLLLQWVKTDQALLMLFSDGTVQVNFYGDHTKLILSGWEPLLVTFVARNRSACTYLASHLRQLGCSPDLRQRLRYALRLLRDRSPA
T18 sequence (P06241 whole entry, species assumed): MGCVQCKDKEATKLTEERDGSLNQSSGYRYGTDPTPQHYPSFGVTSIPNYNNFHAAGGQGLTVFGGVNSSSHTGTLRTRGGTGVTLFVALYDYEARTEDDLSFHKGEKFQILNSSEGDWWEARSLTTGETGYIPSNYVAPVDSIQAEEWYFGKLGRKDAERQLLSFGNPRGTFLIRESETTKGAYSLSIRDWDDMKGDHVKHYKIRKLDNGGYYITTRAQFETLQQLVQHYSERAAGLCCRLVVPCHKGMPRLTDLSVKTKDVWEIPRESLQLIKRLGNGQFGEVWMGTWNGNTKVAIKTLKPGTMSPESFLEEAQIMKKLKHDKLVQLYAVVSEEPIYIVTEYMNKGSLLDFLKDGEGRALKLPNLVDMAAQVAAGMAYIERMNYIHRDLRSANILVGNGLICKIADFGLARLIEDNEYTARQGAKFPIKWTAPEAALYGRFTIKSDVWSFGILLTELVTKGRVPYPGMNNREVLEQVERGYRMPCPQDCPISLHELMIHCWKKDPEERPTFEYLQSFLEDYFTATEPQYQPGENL
T9 sequence (P80192 whole entry, species assumed): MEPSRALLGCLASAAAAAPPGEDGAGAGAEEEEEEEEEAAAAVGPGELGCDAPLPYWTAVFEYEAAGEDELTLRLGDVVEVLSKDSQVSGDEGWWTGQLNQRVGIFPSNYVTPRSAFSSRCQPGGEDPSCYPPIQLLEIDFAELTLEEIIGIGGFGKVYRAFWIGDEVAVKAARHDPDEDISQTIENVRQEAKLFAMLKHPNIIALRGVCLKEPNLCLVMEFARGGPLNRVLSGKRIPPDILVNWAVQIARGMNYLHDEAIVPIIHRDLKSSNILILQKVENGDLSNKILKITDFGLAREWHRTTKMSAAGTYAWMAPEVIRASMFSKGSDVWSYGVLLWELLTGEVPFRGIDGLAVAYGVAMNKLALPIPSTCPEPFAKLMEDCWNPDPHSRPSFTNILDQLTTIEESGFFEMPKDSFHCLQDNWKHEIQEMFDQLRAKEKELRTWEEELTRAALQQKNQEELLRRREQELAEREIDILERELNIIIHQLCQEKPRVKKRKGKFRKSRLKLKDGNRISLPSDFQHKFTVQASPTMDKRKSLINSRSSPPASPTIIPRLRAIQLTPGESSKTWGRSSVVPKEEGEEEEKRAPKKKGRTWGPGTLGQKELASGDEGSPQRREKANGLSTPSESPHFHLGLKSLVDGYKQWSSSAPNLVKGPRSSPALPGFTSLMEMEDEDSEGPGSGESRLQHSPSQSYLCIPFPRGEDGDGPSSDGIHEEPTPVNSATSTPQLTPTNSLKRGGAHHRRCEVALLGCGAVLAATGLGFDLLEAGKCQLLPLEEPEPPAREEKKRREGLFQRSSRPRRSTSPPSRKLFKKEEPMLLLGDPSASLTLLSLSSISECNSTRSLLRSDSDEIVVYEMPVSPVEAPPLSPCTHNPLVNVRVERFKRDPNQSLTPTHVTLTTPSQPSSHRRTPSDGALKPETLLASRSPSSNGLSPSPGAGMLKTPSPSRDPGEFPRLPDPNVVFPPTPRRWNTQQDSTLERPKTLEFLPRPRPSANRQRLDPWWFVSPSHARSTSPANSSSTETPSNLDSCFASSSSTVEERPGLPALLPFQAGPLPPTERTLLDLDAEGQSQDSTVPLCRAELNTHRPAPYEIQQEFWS
T29 sequence (P30530 26-894, species assumed): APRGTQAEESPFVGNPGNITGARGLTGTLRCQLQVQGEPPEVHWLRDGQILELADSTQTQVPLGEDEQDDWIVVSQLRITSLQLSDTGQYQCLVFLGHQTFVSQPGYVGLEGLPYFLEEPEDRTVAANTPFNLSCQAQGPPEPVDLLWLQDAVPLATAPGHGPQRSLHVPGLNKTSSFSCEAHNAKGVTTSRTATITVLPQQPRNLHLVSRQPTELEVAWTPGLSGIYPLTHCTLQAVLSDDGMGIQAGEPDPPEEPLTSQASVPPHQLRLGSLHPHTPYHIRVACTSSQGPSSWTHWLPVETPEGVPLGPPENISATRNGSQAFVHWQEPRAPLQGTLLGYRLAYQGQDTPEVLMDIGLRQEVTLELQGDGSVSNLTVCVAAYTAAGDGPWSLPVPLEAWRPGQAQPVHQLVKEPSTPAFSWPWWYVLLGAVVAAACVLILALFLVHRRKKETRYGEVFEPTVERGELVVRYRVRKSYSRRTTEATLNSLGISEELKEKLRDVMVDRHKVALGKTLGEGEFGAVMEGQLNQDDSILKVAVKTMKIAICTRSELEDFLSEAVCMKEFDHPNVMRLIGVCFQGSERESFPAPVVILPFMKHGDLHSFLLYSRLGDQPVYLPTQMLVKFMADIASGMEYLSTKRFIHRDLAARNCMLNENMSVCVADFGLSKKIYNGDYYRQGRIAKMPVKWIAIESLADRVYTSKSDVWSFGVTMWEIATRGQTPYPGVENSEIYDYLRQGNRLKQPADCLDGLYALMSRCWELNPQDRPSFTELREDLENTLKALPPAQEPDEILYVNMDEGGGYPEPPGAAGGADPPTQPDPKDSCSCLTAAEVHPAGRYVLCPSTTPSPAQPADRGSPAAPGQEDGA
T14 sequence (Q02763 23-1124, species assumed): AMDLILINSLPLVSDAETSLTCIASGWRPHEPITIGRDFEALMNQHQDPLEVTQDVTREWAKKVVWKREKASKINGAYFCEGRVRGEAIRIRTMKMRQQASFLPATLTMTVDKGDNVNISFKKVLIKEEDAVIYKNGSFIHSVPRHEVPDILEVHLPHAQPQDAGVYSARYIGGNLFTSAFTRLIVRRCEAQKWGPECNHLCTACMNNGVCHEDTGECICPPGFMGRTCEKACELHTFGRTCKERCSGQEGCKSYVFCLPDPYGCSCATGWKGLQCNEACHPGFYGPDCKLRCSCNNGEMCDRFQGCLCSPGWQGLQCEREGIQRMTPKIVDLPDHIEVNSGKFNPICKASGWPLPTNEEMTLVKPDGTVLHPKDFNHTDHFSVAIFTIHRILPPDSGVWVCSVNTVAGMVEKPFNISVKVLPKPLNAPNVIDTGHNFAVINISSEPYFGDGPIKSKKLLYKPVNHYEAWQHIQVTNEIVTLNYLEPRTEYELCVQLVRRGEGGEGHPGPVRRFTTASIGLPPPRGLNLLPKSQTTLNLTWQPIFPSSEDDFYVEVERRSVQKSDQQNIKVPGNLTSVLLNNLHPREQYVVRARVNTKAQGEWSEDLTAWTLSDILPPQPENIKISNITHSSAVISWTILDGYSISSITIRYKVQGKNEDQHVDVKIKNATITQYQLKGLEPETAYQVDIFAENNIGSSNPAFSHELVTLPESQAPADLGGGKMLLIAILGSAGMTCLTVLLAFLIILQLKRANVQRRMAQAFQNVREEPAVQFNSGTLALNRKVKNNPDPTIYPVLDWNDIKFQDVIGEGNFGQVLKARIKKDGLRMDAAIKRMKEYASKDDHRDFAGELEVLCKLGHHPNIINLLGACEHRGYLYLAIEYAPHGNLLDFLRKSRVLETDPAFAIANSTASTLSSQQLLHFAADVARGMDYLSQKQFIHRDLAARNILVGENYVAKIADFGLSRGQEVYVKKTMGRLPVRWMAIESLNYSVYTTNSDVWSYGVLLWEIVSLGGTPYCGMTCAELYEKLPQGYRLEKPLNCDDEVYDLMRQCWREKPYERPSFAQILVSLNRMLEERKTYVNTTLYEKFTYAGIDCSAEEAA
T19 sequence (Q13177 whole entry, species assumed): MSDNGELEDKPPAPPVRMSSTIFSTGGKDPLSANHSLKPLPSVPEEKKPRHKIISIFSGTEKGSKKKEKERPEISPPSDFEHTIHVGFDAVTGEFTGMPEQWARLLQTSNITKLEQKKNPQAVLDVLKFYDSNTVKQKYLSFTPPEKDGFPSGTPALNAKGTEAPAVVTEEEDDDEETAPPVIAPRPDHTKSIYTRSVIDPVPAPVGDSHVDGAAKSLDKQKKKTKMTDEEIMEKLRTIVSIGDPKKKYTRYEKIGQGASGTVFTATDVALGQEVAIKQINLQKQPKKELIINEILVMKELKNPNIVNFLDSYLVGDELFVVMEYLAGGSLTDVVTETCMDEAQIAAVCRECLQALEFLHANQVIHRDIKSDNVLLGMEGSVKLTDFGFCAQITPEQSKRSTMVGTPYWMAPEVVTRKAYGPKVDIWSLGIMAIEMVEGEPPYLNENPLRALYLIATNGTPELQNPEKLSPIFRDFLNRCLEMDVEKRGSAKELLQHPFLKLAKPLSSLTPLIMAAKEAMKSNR

`CC(C)(C)c1ccc(S(=O)(=O)NCc2ccc(C(=O)Nc3cccnc3)cc2)cc1` [STF-31] was tested, and the “Kinase response to STF-31” value (Plk3) was 104, the “Kinase response to STF-31” value (PKBα) was 99 and the “Kinase response to STF-31” value (MAPKAP-K2) was 87. The “Kinase response to STF-31” value (CDK6/cyclinD3) was 105, the “Kinase response to STF-31” value (MSK1) was 107 and the “Kinase response to STF-31” value (Flt3) was 111. The “Kinase response to STF-31” value (Aurora-A) was 108, the “Kinase response to STF-31” value (c-RAF) was 103 and the “Kinase response to STF-31” value (MLK1) was 97. For the same molecule, the “Kinase response to STF-31” value (TrkA) was 124, the “Kinase response to STF-31” value (IR) was 121 and the “Kinase response to STF-31” value (CaMKI) was 87. For the same molecule, the “Kinase response to STF-31” value (mTOR) was 101, the “Kinase response to STF-31” value (Tie2) was 111 and the “Kinase response to STF-31” value (DAPK1) was 92. For the same molecule, the “Kinase response to STF-31” value (EphA1) was 102, the “Kinase response to STF-31” value (Abl) was 108 and the “Kinase response to STF-31” value (Fyn) was 91. The “Kinase response to STF-31” value (PAK2) was 97, the “Kinase response to STF-31” value (Met) was 105 and the “Kinase response to STF-31” value (CHK1) was 114. The “Kinase response to STF-31” value (ASK1) was 129, the “Kinase response to STF-31” value (GSK3α) was 134 and the “Kinase response to STF-31” value (CDK1/cyclinB) was 96. For the same molecule, the “Kinase response to STF-31” value (MEK1) was 99, the “Kinase response to STF-31” value (IRAK1) was 105 and the “Kinase response to STF-31” value (CK1γ1) was 85. For the same molecule, the “Kinase response to STF-31” value (Hck) was 84, the “Kinase response to STF-31” value (Axl) was 87 and the “inhibition of lactate production” value (RCC4 cells) was “about 60%”.
